Patent publication US20180153995A1, “USE OF ANTIMICROBIAL POLYMERS FOR RE-SENSITIZATION OF MICROORGANISMS UPON EMERGENCE OF RESISTANCE TO ANTI-MICROBIAL AGENTS” (Technion Research & Development Foundation Limited, priority 2008, published 2018)
Like-named read-outs stand apart in the source and are kept apart here.

How the values were obtained:
S. aureus 43300 [1] = assay: Antibiotic MIC by microdilution with or without sub-MIC polymer; assay type: cell-based, Staphylococcus aureus
MRSA 15903 = assay: microbe, parasite or virus in culture; assay type: cell-based, Staphylococcus aureus
How it was run: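 Values are FIC indexes, summing each agent's MIC in combination divided by its MIC alone, for MRSA 15903. Interpretation: <0.5 clear re-sensitization, 0.5 to 4 marginal or none, >4 antagonistic.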

S. aureus 43300 [2] = assay: Antibiotic MIC by microdilution with or without sub-MIC polymer; assay type: cell-based, Staphylococcus aureus; conditions: no polymer (None)
E. coli 16327 = assay: microbe, parasite or virus in culture
S. maltophila 748 = assay: Antibiotic MIC by microdilution with or without sub-MIC polymer; assay type: cell-based, Stenotrophomonas maltophila
E. coli 16329 = assay type: cell-based, Escherichia coli; conditions: E. coli U-16329
How it was run: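 Bacterial suspensions (100 μl) were added to 100 μl of culture medium carrying 2-fold serially diluted antibiotic together with a fraction of the polymer's MIC, or to plain medium as control. Plates were incubated 24 hours at 37° C, and proliferation was read at 620 nm against calibration standards. Starting inoculum was 10^5 bacteria per ml.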

E. coli 14182 = assay: Antibiotic MIC by microdilution with or without sub-MIC polymer; assay type: cell-based, Escherichia coli
S. aureus 15877 = assay: as above; assay type: cell-based, Staphylococcus aureus
E. coli 14384 = assay: as above; assay type: cell-based, Escherichia coli; conditions: E. coli 14384
How it was run: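 After 24 h incubation at 37° C, proliferation measured by optical density at 620 nm against calibration standards. Bacteria seeded at 10^5 per ml into 2-fold dilution series of either polymer alone or antibiotic plus […].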

S. aureus 17314 = assay: as above; assay type: cell-based, Staphylococcus aureus; conditions: S. aureus 17314
[3] = tested on: E. coli K-12 resistant wild type; assay type: cell-based, Escherichia coli; conditions: E. coli AG100 (w.t.)
[4] = +¼ MIC (1.6 μM) C12K(KNC12K)2NH2
[5] = +½ MIC (3.12 μM) C12K(KNC12K)2NH2
[6] = +⅓ MIC (2.1 μM) C12K(KNC12K)2NH2
[7] = +½ MIC (3.12 μM) C14(9-ene)KKNC12KNH2

CN(C)[C@@H]1C(O)=C(C(N)=O)C(=O)[C@@]2(O)C(O)=C3C(=O)c4c(O)cccc4[C@@](C)(O)[C@H]3C[C@@H]12 [Tetracycline, tetracycline]
Antibiotic MIC (S. aureus 43300 [1]; [4]): 0.5 µg/mL | Antibiotic MIC (S. aureus 43300 [1]; +¼ MIC (1.6 μM) C12KKNC12KNH2): 0.5 µg/mL | Antibiotic MIC (S. aureus 43300 [1]; +¼ MIC (1.6 μM) C16(9-ene)KKNC12KNH2): 0.25 µg/mL | Antibiotic MIC (S. aureus 43300 [1]; [5]): 0.5 µg/mL | Antibiotic MIC (S. aureus 43300 [1]; +½ MIC (3.12 μM) C12KKNC12KNH2): 0.5 µg/mL | Antibiotic MIC (S. aureus 43300 [1]; [6]): 0.5 µg/mL | Antibiotic MIC (S. aureus 43300 [1]; +⅓ MIC (2.1 μM) C12KKNC12KNH2): 0.5 µg/mL | MIC (MRSA 15903; MRSA 15903, +¼ polymer MIC (1.6 μM) NC12(KNC12K)2NH2): 0.5 µg/mL | MIC (MRSA 15903; MRSA 15903, +½ polymer MIC (3.1 μM) NC12(KNC12K)2NH2): 0.004 µg/mL | MIC (MRSA 15903; MRSA 15903, +⅓ polymer MIC (2.1 μM) NC12(KNC12K)2NH2): 0.25 µg/mL | MIC, ¼ + MIC OAK (MRSA 15903; MRSA 15903, with C12K(KNC10K)3NH2 (SEQ ID NO: 10) at ¼ of its MIC): 1 µg/mL | MIC, ½ + MIC OAK (MRSA 15903; MRSA 15903, with C12K(KNC10K)3NH2 (SEQ ID NO: 10) at ½ of its MIC): 0.25 µg/mL | MIC, ⅓ + MIC OAK (MRSA 15903; MRSA 15903, with C12K(KNC10K)3NH2 (SEQ ID NO: 10) at ⅓ of its MIC): 1 µg/mL | MIC (MRSA 15903; S. aureus CI-15903, +polymer (¼ MIC) C12(5-ene)KKNC12KNH2): 0.5 µg/mL | MIC (MRSA 15903; S. aureus CI-15903, +polymer (½ MIC) C12(5-ene)KKNC12KNH2): 0.06 µg/mL | MIC (MRSA 15903; S. aureus CI-15903, +polymer (⅓ MIC) C12(5-ene)KKNC12KNH2): 0.1 µg/mL | MIC (MRSA 15903; Staphylococcus aureus, MRSA, 24 h, MRSA 15903, antibiotic alone (Table 22), read-out: MIC, Alone): 1 µg/mL | MIC (MRSA 15903; Staphylococcus aureus, MRSA, 24 h, MRSA 15903, antibiotic alone, read-out: MIC): 0.5 µg/mL | MIC (MRSA 15903; Staphylococcus aureus, MRSA, 24 h, S. aureus CI-15903, alone, read-out: MIC): 0.5 µg/mL | Antibiotic MIC (S. aureus 43300 [2]; Table 8): 0.25 µg/mL | Antibiotic MIC (S. aureus 43300 [2]; Table 9): 0.25 µg/mL | Antibiotic MIC (S. aureus 43300 [2]; Table 10): 0.25 µg/mL | Antibiotic MIC (S. aureus 43300 [2]; Table 11): 0.5 µg/mL | Antibiotic MIC (S. aureus 43300 [2]; Table 12): 0.5 µg/mL | Antibiotic MIC (E. coli 16327; E. coli 16327, +½ MIC (3.12 μM) C14(9-ene)KKNC12KNH2): 32 µg/mL | MIC, ½ + MIC OAK (E. coli 16327; E. coli U16327, with C12K(KNC10K)3NH2 (SEQ ID NO: 10) at ½ of its MIC): 64 µg/mL | Antibiotic MIC in presence of C12K(NC8K)7NH2 (SEQ ID NO: 4), +½ MIC (E. coli 16327; E. coli U-16327, polymer at ½ of its MIC): 32 µg/mL | Antibiotic MIC (S. maltophila 748; +¼ MIC (1.6 μM) C12K(KNC12K)3NH2): 64 µg/mL | Antibiotic MIC (S. maltophila 748; +½ MIC (3.12 μM) C12K(KNC12K)3NH2): 32 µg/mL | Antibiotic MIC (S. maltophila 748; +⅓ MIC (2.1 μM) C12K(KNC12K)3NH2): 64 µg/mL | Antibiotic MIC (E. coli 16329; +½ MIC C12K(NC8K)5NH2): 64 µg/mL | Antibiotic MIC in presence of C12K(NC8K)7NH2 (SEQ ID NO: 4), +½ MIC (E. coli 16329; polymer at ½ of its MIC): 32 to 64 µg/mL | Antibiotic MIC (E. coli 14182; +¼ MIC C12K(NC8K)5NH2): 32 µg/mL | Antibiotic MIC (E. coli 14182; +½ MIC C12K(NC8K)5NH2): 8 to 16 µg/mL | Antibiotic MIC (E. coli 14182; +⅓ MIC C12K(NC8K)5NH2): 32 µg/mL | Antibiotic MIC, None (E. coli 14182; antibiotic alone (Table 15)): 32 to 64 µg/mL | Antibiotic MIC (E. coli 14182; no polymer (None), Table 14): 32 to 64 µg/mL | Antibiotic MIC in presence of C12K(NC8K)7NH2 (SEQ ID NO: 4), +¼ MIC (E. coli 14182; polymer at ¼ of its MIC): 32 µg/mL | Antibiotic MIC in presence of C12K(NC8K)7NH2 (SEQ ID NO: 4), +½ MIC (E. coli 14182; polymer at ½ of its MIC): 8 to 16 µg/mL | Antibiotic MIC in presence of C12K(NC8K)7NH2 (SEQ ID NO: 4), +⅓ MIC (E. coli 14182; polymer at ⅓ of its MIC): 32 µg/mL | Antibiotic MIC (S. aureus 15877; +¼ MIC (1.6 μM) C12(5-ene)KKNC12KNH2): 1 µg/mL | Antibiotic MIC (S. aureus 15877; +½ MIC (3.12 μM) C12(5-ene)KKNC12KNH2): 0.5 to 1 µg/mL | Antibiotic MIC (S. aureus 15877; +⅓ MIC (2.1 μM) C12(5-ene)KKNC12KNH2): 1 µg/mL | Antibiotic MIC (S. aureus 15877; no polymer (None), Table 8): 1 µg/mL | Antibiotic MIC (E. coli 14384; [7]): 32 µg/mL | Antibiotic MIC (E. coli 14384; +½ MIC C12K(NC8K)5NH2): 32 to 64 µg/mL | Antibiotic MIC in presence of C12K(NC8K)7NH2 (SEQ ID NO: 4), +½ MIC (E. coli 14384; polymer at ½ of its MIC): 64 µg/mL | Antibiotic MIC (S. aureus 17314; [4]): 0.25 µg/mL | Antibiotic MIC (S. aureus 17314; +¼ MIC (1.6 μM) C12KKNC12KNH2): 0.25 to 0.5 µg/mL | Antibiotic MIC (S. aureus 17314; +¼ MIC (1.6 μM) C14(9-ene)KKNC12KNH2): 0.25 µg/mL | Antibiotic MIC (S. aureus 17314; [5]): 0.25 µg/mL | Antibiotic MIC (S. aureus 17314; +½ MIC (3.12 μM) C12KKNC12KNH2): 0.25 to 0.5 µg/mL | Antibiotic MIC (S. aureus 17314; [7]): 0.25 µg/mL | Antibiotic MIC (S. aureus 17314; [6]): 0.5 µg/mL | Antibiotic MIC (S. aureus 17314; +⅓ MIC (2.1 μM) C12KKNC12KNH2): 0.25 to 0.5 µg/mL | Antibiotic MIC (S. aureus 17314; +⅓ MIC (2.1 μM) C14(9-ene)KKNC12KNH2): 0.25 µg/mL | Antibiotic MIC (S. aureus 17314; no polymer (None), Table 9): 0.25 µg/mL | Antibiotic MIC (S. aureus 17314; no polymer (None), Table 10): 0.25 µg/mL | Antibiotic MIC (S. aureus 17314; no polymer (None), Table 11): 0.25 to 0.5 µg/mL | Antibiotic MIC (S. aureus 17314; no polymer (None), Table 12): 0.25 to 0.5 µg/mL | Antibiotic MIC in presence of C12K(NC8K)7NH2 (SEQ ID NO: 4), +¼ MIC ([3]; polymer at ¼ of its MIC (Table 16)): 1 to 2 µg/mL | Antibiotic MIC in presence of C12K(NC8K)7NH2 (SEQ ID NO: 4), +½ MIC ([3]; polymer at ½ of its MIC (Table 16)): 0.25 to 0.5 µg/mL | Antibiotic MIC in presence of C12K(NC8K)7NH2 (SEQ ID NO: 4), +⅓ MIC ([3]; polymer at ⅓ of its MIC (Table 16)): 0.5 µg/mL
